# Test results from patent US20240208969A1, “SUBSTITUTED FUSED BICYCLIC COMPOUNDS AS PARP INHIBITORS AND THE USE THEREOF” (IMPACT THERAPEUTICS (SHANGHAI), INC., priority 2021, published 2024).
# How the values were obtained:
# PARP1 = PARP1 (Homo sapiens, UniProt P09874); assay: PARP1 chemiluminescent assay; type: biochemical; conditions: recombinant PARP1 enzyme activity, chemiluminescence
# Method: (§1) Mix the solution of recombinant poly ADP ribotransferase 1 and 2 (PARP1 and PARP2) (40 ng enzyme/well) and the compounds to be tested, respectively. And then added to a 96-well plate coated with […] mixture, incubated at room temperature for 1 h. Then add 50 μL 0.3 ng/mL Streptavidin-HRP to each well. The plates were incubated for 30 minutes at room temperature. Finally, the plates were treated with streptavidin-HRP followed by addition of the ELISA ECL substrate to produce chemiluminescence that can then be measured using a chemiluminescence reader. The inhibition rate of the compound to PARP1/2 enzyme activity was calculated according to the following formula. [formula] IC50 value is obtained by fitting the s-shaped dose response curve equation by using XL Fit software. The curve equation is Y=100/(1+10^(log C−log IC50)), C is the compound concentration. Table 1 summarizes the inhibitory effects of compounds on PARP1 and PARP2 enzyme activity (IC50), wherein +++++ indicates IC50≤1 nM; ++++ indicates 1<IC50≤10 nM; +++ indicates 10 nM<IC50≤100 nM: ++ indicates 100 nM<IC50≤1 μM; + indicates IC50>1 μM.
# PARP2 = PARP2 (Homo sapiens, UniProt Q9UGN5); assay: PARP2 chemiluminescent assay; type: biochemical; conditions: recombinant PARP2 enzyme activity, chemiluminescence
# PARP2, sequence (Q9UGN5 whole entry, species assumed): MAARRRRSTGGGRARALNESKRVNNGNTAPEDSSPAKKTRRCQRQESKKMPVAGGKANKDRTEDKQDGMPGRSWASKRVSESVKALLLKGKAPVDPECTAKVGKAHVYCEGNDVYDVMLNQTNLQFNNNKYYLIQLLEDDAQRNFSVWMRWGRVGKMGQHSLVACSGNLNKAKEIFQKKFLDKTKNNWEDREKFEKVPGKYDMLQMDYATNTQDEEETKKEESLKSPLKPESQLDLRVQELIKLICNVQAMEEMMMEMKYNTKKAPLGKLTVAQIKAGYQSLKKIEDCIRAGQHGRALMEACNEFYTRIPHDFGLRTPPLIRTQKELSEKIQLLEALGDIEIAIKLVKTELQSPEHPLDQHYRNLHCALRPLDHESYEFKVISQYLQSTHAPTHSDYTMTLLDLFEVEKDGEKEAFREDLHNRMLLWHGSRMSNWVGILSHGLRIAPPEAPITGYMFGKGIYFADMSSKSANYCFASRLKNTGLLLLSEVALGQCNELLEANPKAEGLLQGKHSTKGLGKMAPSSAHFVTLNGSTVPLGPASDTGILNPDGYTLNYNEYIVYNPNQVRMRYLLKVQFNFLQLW
# Method: as §1
# MDA-MB-436 cells = assay: Inhibition of proliferation of human breast cancer MDA-MB-436 cell line (CCK-8, 7 days); type: cell-based; conditions: Homo sapiens, 168 h, proliferation of MDA-MB-436, 7 days
# Method: The cells were cultured in complete medium (DMEM medium +10% FBS+Insulin+glutathione). When the confluence reached about 80%, cells were digested and gently dispensed from the bottom of the dish with a 1 mL pipette. Cell suspension was collected and centrifuged at 500 rpm for 3 min. The supernatant was discarded, and the cell pellet were re-suspended in complete medium. The cells were seeded into a culture dish at an appropriate proportion, and then cultured in a 5% CO2 incubator at 37° C. The assay was carried out when the cells were in optimum condition and the confluence was reached 80%. Cells were harvested in the logarithmic growth phase by using 1 mL pipette gently and then centrifugated at 500 rpm for 3 min. The cells were resuspended by using refresh medium after removing the supernatant and then the cells were counted. The cells were seeded at 3000/well in a 96 well plate and incubated at 37° C. 5% CO2 incubator overnight. In the second day, cells were treated with compound at 8 serially diluted dose with 1000×final concentration in 100% DMSO. The compound was prepared as below: 1000×dilution tested compound solution to 40×test compound solution by adding 5μL, 1000×compound solution to 120 μL Medium (25-fold dilution). The solution was mixed by oscillation. DMSO was used as the control.
# The medium was removed from the wells in the plate after the plate was taken out from incubator. Then, fresh medium of 195 μL/per well was added to the 96 well plate. 5μL/per well of 40×test compound solution was added into the 96 well plate. Finally, the plate was incubated for 7 days in a 37° C. 5% CO2 incubator. The medium containing compound was changed once on the fourth day. After 7 days, 20 μL of CCK-8 was added to each well and shake gently, then was cultured for 4 hours. The plate was shaken for 5 min after incubation, the absorbance values of 450 nm. and 650nm wavelengths were recorded respectively (OD=absorbance value of 450 nm−absorbance value of 650 nm) by using the multifunction readout instrument.
# Data were analyzed by software GraphPad Prism 6.0. The inhibitory activity of compounds on cell proliferation was plotted using cell survival rate against the compound concentration as coordinates. Cell survival rate %=(ODcompound−ODbackground)/(ODDMSO−ODbackground)×100. The IC50 value was fitted by the s-shaped dose response curve equation: Y=100/(1+10^(log C−log IC50)), and C was the compound concentration.
# Table 2 summarizes the inhibitory effect data (IC50) of the compounds on the proliferation of human breast cancer cells MDA-MB-436, wherein ++++ indicates 1<IC50≤10 nM; +++ indicates 10 nM<IC50≤100 nM; ++ indicates 100 nM<IC50≤1 μM; + indicates IC50>1 μM.
# PARP1, sequence (P09874 whole entry): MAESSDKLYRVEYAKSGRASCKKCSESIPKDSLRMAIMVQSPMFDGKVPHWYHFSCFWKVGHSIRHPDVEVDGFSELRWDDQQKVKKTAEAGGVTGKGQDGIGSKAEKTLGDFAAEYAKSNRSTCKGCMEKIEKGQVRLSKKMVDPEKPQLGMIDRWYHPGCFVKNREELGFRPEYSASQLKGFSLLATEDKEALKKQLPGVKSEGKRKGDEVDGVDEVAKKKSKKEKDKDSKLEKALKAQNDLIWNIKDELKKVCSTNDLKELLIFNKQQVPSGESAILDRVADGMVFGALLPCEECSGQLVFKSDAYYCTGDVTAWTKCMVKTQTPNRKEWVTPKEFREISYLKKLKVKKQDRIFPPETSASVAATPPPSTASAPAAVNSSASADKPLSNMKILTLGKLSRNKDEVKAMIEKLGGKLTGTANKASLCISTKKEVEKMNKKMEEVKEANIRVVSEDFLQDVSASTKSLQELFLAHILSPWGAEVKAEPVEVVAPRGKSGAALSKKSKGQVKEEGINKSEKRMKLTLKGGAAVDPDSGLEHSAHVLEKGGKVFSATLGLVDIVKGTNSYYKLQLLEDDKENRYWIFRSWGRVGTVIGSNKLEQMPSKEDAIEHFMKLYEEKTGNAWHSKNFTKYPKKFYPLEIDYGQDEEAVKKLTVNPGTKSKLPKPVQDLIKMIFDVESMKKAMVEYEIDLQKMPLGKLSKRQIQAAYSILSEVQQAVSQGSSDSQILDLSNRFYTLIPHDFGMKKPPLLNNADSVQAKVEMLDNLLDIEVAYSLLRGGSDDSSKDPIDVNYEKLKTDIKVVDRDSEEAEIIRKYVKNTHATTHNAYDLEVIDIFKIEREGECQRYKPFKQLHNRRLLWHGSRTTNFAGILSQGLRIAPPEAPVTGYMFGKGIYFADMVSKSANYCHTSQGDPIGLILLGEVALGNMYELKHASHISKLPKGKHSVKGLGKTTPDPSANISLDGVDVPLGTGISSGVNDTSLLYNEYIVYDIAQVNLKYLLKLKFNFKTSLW
Structure (SMILES),IC50 (PARP1) [nM],IC50 (PARP2) [nM],IC50 (MDA-MB-436 cells) [nM]
"CCn1c(=O)[nH]c2cc(CN3CCN(c4ccc(C(=O)NC)nc4)CC3)cnc2c1=O [Example 1, 5-(4-((3-ethyl-2,4-dioxo-1,2,3,4-tetrahydropyrido[3,2-d]pyrimidin-7-yl)methyl)piperazin-1-yl)-N-methylpicolinamide]",≤ 1,100 to 1000,> 1000
"CNC(=O)c1ccc(N2CCN(Cc3cnc4c(=O)n(C(C)C)c(=O)[nH]c4c3)CC2)cn1 [Example 3, 5-(4-((3-isopropyl-2,4-dioxo-1,2,3,4-tetrahydropyrido[3,2-d]pyrimidin-7-yl)methyl)piperazin-1-yl)-N-methylpicolinamide]",10 to 100,> 1000,> 1000
"CCn1c(=O)[nH]c2cc(CN3CCN(c4ccc(C(=O)NC)nc4C)CC3)cnc2c1=O [Example 4, 5-(4-((3-ethyl-2,4-dioxo-1,2,3,4-tetrahydropyrido[3,2-d]pyrimidin-7-yl)methyl)piperazin-1-yl)-N,6-dimethylpicolinamide]",1 to 10,> 1000,10 to 100
CCCn1c(=O)[nH]c2cc(CN3CCN(c4ccc(C(=O)NC)nc4)CC3)cnc2c1=O [Example 7],≤ 1,> 1000,> 1000
"CCn1c(=O)[nH]c2cc(CN3CCN(c4ccc(C(=O)NC)nc4Cl)CC3)cnc2c1=O [Example 10, 5-(4-((3-ethyl-2,4-dioxo-1,2,3,4-tetrahydropyrido[3,2-d]pyrimidin-7-yl)methyl)piperazin-1-yl)-6-chloro-N-methylpicolinamide]",1 to 10,> 1000,> 1000
"CCn1c(=O)[nH]c2cc(CN3CCN(c4ccc(C(=O)NC)nc4)CC3)ccc2c1=O [Example 12, 5-(4-((3-ethyl-2,4-dioxo-1,2,3,4-tetrahydroquinazolin-7-yl)methyl)piperazin-1-yl)-N-methylpicolinamide]",1 to 10,100 to 1000,10 to 100
"CCn1c(=O)[nH]c2cc(CN3CCN(c4ccc(C(=O)NC)nc4F)CC3)ccc2c1=O [Example 13, 5-(4-((3-ethyl-2,4-dioxo-1,2,3,4-tetrahydroquinazolin-7-yl)methyl)piperazin-1-yl)-6-fluoro-N-methylpicolinamide]",1 to 10,100 to 1000,1 to 10
"CCn1c(=O)[nH]c2cc(CN3CCN(c4ccc(C(=O)NC)nc4F)CC3)c(F)cc2c1=O [Example 14, 5-(4-((3-ethyl-6-fluoro-2,4-dioxo-1,2,3,4-tetrahydroquinazolin-7-yl)methyl)piperazin-1-yl)-6-fluoro-N-methylpicolinamide]",1 to 10,100 to 1000,10 to 100
"CCN1Cc2ccc(CN3CCN(c4ccc(C(=O)NC)nc4)CC3)cc2NC1=O [Example 15, 5-(4-((3-ethyl-2-oxo-1,2,3,4-tetrahydroquinazolin-7-yl)methyl)piperazin-1-yl)-N-methylpicolinamide]",1 to 10,> 1000,100 to 1000
"CCn1c(=O)[nH]c2cc(CN3CCN(c4ccc(C(=O)NC)nc4)CC3)ccc21 [Example 16, 5-(4-((1-ethyl-2-oxo-2,3-dihydro-1H-benzo[d]imidazol-5-yl)methyl)piperazin-1-yl)-N-methylpicolinamide]",> 1000,> 1000,> 1000
"CNC(=O)c1ccc(N2CCN(Cc3ccc4c(=O)n(C)c(=O)[nH]c4c3)CC2)c(F)n1 [Example 17, 5-(4-((3-methyl-2,4-dioxo-1,2,3,4-tetrahydroquinazolin-7-yl)methyl)piperazin-1-yl)-6-fluoro-N-methylpicolinamide]",1 to 10,> 1000,10 to 100
"CCCn1c(=O)[nH]c2cc(CN3CCN(c4ccc(C(=O)NC)nc4F)CC3)ccc2c1=O [Example 19, 5-(4-((2,4-dioxo-3-propyl-1,2,3,4-tetrahydroquinazolin-7-yl)methyl)piperazin-1-yl)-6-fluoro-N-methylpicolinamide]",1 to 10,> 1000,10 to 100
"CCn1c(=O)[nH]c2cc(CN3CCN(c4ccc(C(=O)NC)nc4Cl)CC3)ccc2c1=O [Example 21, 5-(4-((3-ethyl-2,4-dioxo-1,2,3,4-tetrahydroquinazolin-7-yl)methyl)piperazin-1-yl)-6-chloro-N-methylpicolinamide]",≤ 1,10 to 100,1 to 10
"CCn1c(=O)[nH]c2cc(CN3CCN(c4ccc(C(=O)NC)nc4C)CC3)ccc2c1=O [Example 22, 5-(4-((3-ethyl-2,4-dioxo-1,2,3,4-tetrahydroquinazolin-7-yl)methyl)piperazin-1-yl)-N,6-dimethylpicolinamide]",1 to 10,> 1000,1 to 10
"CCNC(=O)c1ccc(N2CCN(Cc3cc(F)c4c(c3)NC(=O)N(CC)C4)CC2)c(Cl)n1 [Example 122, 6-chloro-N-ethyl-5-(4-((3-ethyl-5-fluoro-2-oxo-1,2,3,4-tetrahydroquinazolin-7-yl)methyl)piperazin-1-yl)picolinamide]",1 to 10,–,10 to 100
"CCN1Cc2ccc(CN3CCN(c4ccc(C(=O)NC5CC5)nc4Cl)CC3)cc2NC1=O [Example 132, 6-chloro-N-cyclopropyl-5-(4-((3-ethyl-2-oxo-1,2,3,4-tetrahydroquinazolin-7-yl)methyl)piperazin-1-yl)picolinamide]",–,–,1 to 10
"CCN1Cc2c(F)cc(CN3CCN(c4ccc(C(=O)NC)nc4F)CC3)cc2NC1=O [Example 134, 5-(4-((3-ethyl-5-fluoro-2-oxo-1,2,3,4-tetrahydroquinazolin-7-yl)methyl)piperazin-1-yl)-6-fluoro-N-methylpicolinamide]",–,–,10 to 100
"CCn1c(=O)[nH]c2cc(CN3CCN(c4ccc(C(=O)NC)nc4F)CC3)cc(Cl)c2c1=O [Example 136, 5-(4-((5-chloro-3ethyl-2,4-dioxo-1,2,3,4-tetrahydroquinazolin-7-yl)methyl)piperazin-1-yl)-6-fluoro-N-methylpicolinamide]",–,–,1 to 10
"CCN1Cc2ccc(CN3CCN(c4ccc(C(=O)NC5CC5)nc4C)CC3)cc2NC1=O [Example 137, N-cyclopropyl-5-(4-((3-ethyl-2-oxo-1,2,3,4-tetrahydroquinazolin-7-yl)methyl)piperazin-1-yl)-6-methylpicolinamide]",–,–,10 to 100
"CNC(=O)c1ccc(N2CCN(Cc3ccc4c(=O)n(C)c(=O)[nH]c4c3F)CC2)c(F)n1 [Example 138, 6-fluoro-5-(4-((8-fluoro-3-methyl-2,4-dioxo-1,2,3,4-tetrahydroquinazolin-7-yl)methyl)piperazin-1-yl)-N-methylpicolinamide]",–,–,10 to 100
"CCn1c(=O)[nH]c2cc(CN3CCN(c4ccc(C(=O)NC5CC5)nc4F)CC3)cc(F)c2c1=O [Example 141, N-cyclopropyl-5-(4-((3-ethyl-5-fluoro-2,4-dioxo-1,2,3,4-tetrahydroquinazolin-7-yl)methyl)piperazin-1-yl)-6-fluoropicolinamide]",–,–,1 to 10
"CCN1Cc2ncc(CN3CCN(c4ccc(C(=O)NC)nc4)CC3)cc2NC1=O [Example 144, 5-(4-((3-ethyl-2-oxo-1,2,3,4-tetrahydropyrido[3,2-d]pyrimidin-7-yl)methyl)piperazin-1-yl)-N-methylpicolinamide]",–,–,10 to 100
